The target in one series is human BACE1 (Homo sapiens, UniProt P56817). The series can be described thus: Fluorescent kinetic assay: Evaluation of BACE-1 Binding Affinity of Test Compounds. The series is classed as biochemical. The settings on record: 10 nM enzyme, 25 μM substrate WABC-6, 50 mM Na-Acetate pH 4.5, room temperature. In short, it runs like this:
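Run with 10 nM human BACE1 and 25 μM WABC-6 FRET peptide in 50 mM Na-acetate pH 4.5, 0.05% CHAPS, 25% PBS at room temperature. Fluorescence (ex 320/em 420 nm) was read every 40 sec for 30 min, and initial cleavage rates were taken from linear slopes across ≥10 inhibitor concentrations.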

The structures appear in SMILES notation.

human BACE1, sequence (P56817 46-501): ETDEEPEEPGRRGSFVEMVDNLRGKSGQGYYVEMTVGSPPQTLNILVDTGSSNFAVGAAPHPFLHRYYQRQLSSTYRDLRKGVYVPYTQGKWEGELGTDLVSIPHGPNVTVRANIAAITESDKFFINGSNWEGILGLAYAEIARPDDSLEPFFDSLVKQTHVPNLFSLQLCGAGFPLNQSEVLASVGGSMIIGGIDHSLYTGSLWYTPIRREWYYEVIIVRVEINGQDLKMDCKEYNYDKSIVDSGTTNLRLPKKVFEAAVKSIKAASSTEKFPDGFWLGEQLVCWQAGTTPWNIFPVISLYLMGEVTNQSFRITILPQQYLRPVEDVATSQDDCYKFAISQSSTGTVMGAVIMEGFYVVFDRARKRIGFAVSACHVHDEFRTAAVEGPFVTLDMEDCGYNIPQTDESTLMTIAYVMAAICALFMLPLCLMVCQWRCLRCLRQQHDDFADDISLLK

For orientation: IC50 means the midpoint of a concentration-inhibition curve. The low end stands for inhibition by little substance, the high end for a need for much substance. Broadly, the melting point is the temperature, or range, at which the solid turns liquid. As to `CCn1cc(C2(c3cccc(-c4cccnc4F)c3)N=C(N)N(C)C2=O)cc1C(=O)C1CC1` (stereo not shown) [Example 172], the melting point was in the range of 98 to 100 °C. Further, at human BACE1, the concentration for half-maximal inhibition (IC50) is 10 to 100 nM.

The compound `CCC(=O)c1cc(C2(c3cccc(-c4cccnc4F)c3)N=C(N)N(C)C2=O)cn1Cc1cscn1` (stereo not shown) [Example 182] gave a melting point of 116 to 120 °C. For the same compound, on human BACE1, the IC50 was in the range of 10 to 100 nM.

As for `CCC(=O)c1cc(C2(c3cccc(-c4cccnc4F)c3)N=C(N)N(C)C2=O)cn1CC(C)C` (stereo not shown) [Example 179], the melting point was in the range of 98 to 102 °C. The IC50 at human BACE1 lay in the range of 10 to 100 nM.

Turning to `CCC(=O)c1cc(C2(c3cccc(-c4cccc(Cl)c4)c3)N=C(N)N(C)C2=O)cn1CC(F)(F)F` (stereo not shown) [Example 204], the melting point is 108 to 110 °C. For the same compound, the IC50 on human BACE1 fell in the range of 10 to 100 nM.

`Cc1nn(CC(F)(F)F)cc1C1(c2cccc(-c3cccnc3F)c2)N=C(N)N(C)C1=O` (stereo not shown) [Example 11, 2-Amino-5-[3-(2-fluoropyridin-3-yl)phenyl]-3-methyl-5-[3-methyl-1-(2,2,2-trifluoroethyl)-1H-pyrazol-4-yl]-3,5-dihydro-4H-imidazol-4-one]: the melting point lay in the range of 128 to 132 °C. Besides, the IC50 at human BACE1 lay within 110 to 1000 nM.

With `CC(C)COc1cccc(C2(c3ccsc3)N=C(N)N(C)C2=O)c1` (stereo not shown) [Example 148], the melting point lay in the range of 70 to 73 °C. Besides, the IC50 on human BACE1 fell in the range of 110 to 1000 nM.

Compound `CN1C(=O)C(c2cccc(-c3cccnc3F)c2)(c2cc(C#N)n(C)c2)N=C1N` (stereo not shown) [Example 226] had a melting point of 213 to 220 °C. On human BACE1, this compound came in with a 50% inhibitory concentration (IC50) of 110 to 1000 nM.

Regarding `CCC(=O)c1cc(C2(c3cccc(-c4cccnc4F)c3)N=C(N)N(C)C2=O)cn1CC` (stereo not shown) [Example 155], the melting point is 126 to 128 °C. The compound further yielded an IC50 at human BACE1 of 10 to 100 nM.

On to `CN1C(=O)C(c2cccc(-c3cncnc3)c2)(c2cnn(C3CCCC3)c2)N=C1N` (stereo not shown) [Example 105], for which the melting point lay in the range of 112 to 115 °C. Moreover, the IC50 at human BACE1 fell in the range of 10 to 100 nM.

As to `CN1C(=O)C(c2cccc(-c3cccnc3F)c2)(c2cnn(Cc3ccccc3)c2)N=C1N` (stereo not shown) [Example 103], the melting point fell in the range of 94 to 97 °C. On human BACE1, this compound gave an IC50 of 10 to 100 nM.

`CN1C(=O)C(c2cccc(-c3cccnc3F)c2)(c2cc(CN3CCCC3)n(CCF)c2)N=C1N` (stereo not shown) [Example 237] showed a melting point of 110 to 120 °C. The compound also returned a half-inhibitory concentration (IC50) at human BACE1 above 1000 nM.

The compound `COC(=O)c1cc([C@@]2(c3ccc(F)c(-c4cncnc4)c3)N=C(N)N(C)C2=O)cn1CCF` [Example 119B, Methyl 4-[(4R)2-Amino-4-(4-fluoro-3-pyrimidinyl-5-phenyl)-1-methyl-5-oxo-4,5-dihydro-1H-imidazol-4-yl]-1-(2-fluoroethyl)-1H-pyrrole-2-carboxylate] gave a melting point of 186 to 188 °C. For the same compound, at human BACE1, the IC50 was 110 to 1000 nM.

Consider `Cc1c(C2(c3cccc(-c4cccnc4F)c3)N=C(N)N(C)C2=O)cnn1CC(F)(F)F` (stereo not shown) [Example 2, 2-Amino-5-[3-(2-fluoropyridin-3-yl)phenyl]-3-methyl-5-[5-methyl-1-(2,2,2-trifluoroethyl)-1H-pyrazol-4-yl]-3,5-dihydro-4H-imidazol-4-one], for which the melting point fell in the range of 235 to 238 °C. On human BACE1, this compound returned an IC50 of 110 to 1000 nM.

Consider `CN1C(=O)C(c2cccc(OCc3ccccc3)c2)(c2cnn(CC(F)(F)F)c2)N=C1N` (stereo not shown) [Example 92, 2-amino-5-[3-(benzyloxy)phenyl]-3-methyl-5-[1-(2,2,2-trifluoroethyl)-1H-pyrazol-4-yl]-3,5-dihydro-4H-imidazol-4-one], for which the melting point lay in the range of 85 to 87 °C. Also, the IC50 on human BACE1 is above 1000 nM.

With `CN1C(=O)C(c2cccc(-c3cncnc3)c2)(c2cnn(CCC(C)(C)C)c2)N=C1N` (stereo not shown) [Example 106], the melting point fell in the range of 93 to 96 °C. Moreover, the IC50 on human BACE1 is 10 to 100 nM.

`CN1C(=O)C(c2cccc(-c3cccnc3F)c2)(c2cnn(CCC3CCCCC3)c2)N=C1N` (stereo not shown) [Example 104]: the melting point lay in the range of 88 to 90 °C. The compound also had an IC50 at human BACE1 of 10 to 100 nM.

`CCn1cc(C2(c3cccc(-c4cccnc4F)c3)N=C(N)N(C)C2=O)cc1C(=O)C1CCCCC1` (stereo not shown) [Example 171] showed a melting point of 94 to 100 °C. The IC50 at human BACE1 lay within 10 to 100 nM.

`COC(=O)c1cc([C@]2(c3ccc(F)c(-c4cncnc4)c3)N=C(N)N(C)C2=O)cn1CCF` [Example 119A, Methyl 4-[(4S)2-Amino-4-(4-fluoro-3-pyrimidinyl-5-phenyl)-1-methyl-5-oxo-4,5-dihydro-1H-imidazol-4-yl]-1-(2-fluoroethyl)-1H-pyrrole-2-carboxylate] had a melting point of 186 to 188 °C. Also, at human BACE1, the IC50 was in the range of 10 to 100 nM.

Consider `CN1C(=O)C(c2ccc(OC(F)F)cc2)(c2cnn(CCF)c2)N=C1N` (stereo not shown) [Example 73], for which the melting point lay within 140 to 142 °C. This compound also had an IC50 on human BACE1 above 1000 nM.

The compound `C=CCCCOc1cccc(C2(c3cc(C(=O)CC)n(CC)c3)N=C(N)N(C)C2=O)c1` (stereo not shown) [Example 140] yielded a melting point of 69 °C. At human BACE1, this compound gave an IC50 of 10 to 100 nM.

In the case of `CCCCOc1cccc(C2(c3cc(C(=O)CC)n(CC)c3)N=C(N)N(C)C2=O)c1` (stereo not shown) [Example 136], the melting point came out at 76 °C. In addition, the IC50 on human BACE1 lay within 110 to 1000 nM.

`CCC(C)C(=O)c1cc(C2(c3cccc(-c4cccnc4F)c3)N=C(N)N(C)C2=O)cn1CC` (stereo not shown) [Example 174] yielded a melting point of 210 to 211 °C. Also, the IC50 on human BACE1 lay within 10 to 100 nM.

As to `COc1cccc(-c2cc(C3(c4cnn(C(C)C)c4)N=C(N)N(C)C3=O)ccc2F)c1` (stereo not shown) [Example 98], the melting point lay in the range of 112 to 114 °C. Further, at human BACE1, the IC50 fell in the range of 10 to 100 nM.

In turn, `CN1C(=O)C(c2cccc(-c3cccnc3F)c2)(c2cc(C=O)n(CCF)c2)N=C1N` (stereo not shown) [Example 234, 4-[2-Amino-4-[3-(2-fluoropyridin-3-yl)phenyl]-1-methyl-5-oxo-4,5-dihydro-1H-imidazol-4-yl]-1-(2-fluoroethyl)-1H-pyrrole-2-carbaldehyde] registered a melting point of 218 to 221 °C. On human BACE1, this compound returned an IC50 of 10 to 100 nM.

Consider `CN1C(=O)C(c2ccc(OC(F)F)cc2)(c2cnn(Cc3ccccc3)c2)N=C1N` (stereo not shown) [Example 75], for which the melting point lay within 74 to 76 °C. In addition, the IC50 at human BACE1 is above 1000 nM.

In turn, `CCCCCC(=O)c1cc(C2(c3cccc(-c4cccnc4F)c3)N=C(N)N(C)C2=O)cn1CC` (stereo not shown) [Example 169] showed a melting point of 71 to 73 °C. The same compound displayed a 50% inhibitory concentration (IC50) at human BACE1 of 10 to 100 nM.

In turn, `CN1C(=O)C(c2ccsc2)(c2cccc(OCC3CCCCC3)c2)N=C1N` (stereo not shown) [Example 147] yielded a melting point of 88 to 90 °C. In addition, the IC50 at human BACE1 was above 1000 nM.

Regarding `CCc1cc(C2(c3cccc(-c4cncnc4)c3)N=C(N)N(C)C2=O)c(C)s1` (stereo not shown) [Example 31], the melting point was in the range of 128 to 134 °C. This compound came in with an IC50 on human BACE1 of 110 to 1000 nM.

`CCn1cc(C2(c3cccc(-c4cccnc4F)c3)N=C(N)N(C)C2=O)cc1C(=O)C(C)C` (stereo not shown) [Example 173] yielded a melting point of 85 to 88 °C. The compound further gave an IC50 on human BACE1 of 10 to 100 nM.

For `CCn1cc(C2(c3cccc(-c4cccnc4F)c3)N=C(N)N(C)C2=O)cc1C(=O)NC` (stereo not shown) [Example 157], the melting point was 138 to 140 °C. Besides, on human BACE1, the IC50 fell in the range of 10 to 100 nM.

Compound `CCOc1cccc(-c2cccc(C3(c4cnn(CC(F)(F)F)c4)N=C(N)N(C)C3=O)c2)c1` (stereo not shown) [Example 83] displayed a melting point of 88 to 90 °C. At human BACE1, the IC50 was 10 to 100 nM.

Compound `CCC(=O)c1cc([C@]2(c3cccc(-c4cccnc4F)c3)N=C(N)N(C)C2=O)cn1CC` [Example 185, (5S)-2-Amino-5-(1-ethyl-5-propionyl-1H-pyrrol-3-yl)-5-[3-(2-fluoropyridin-3-yl)phenyl]-3-methyl-3,5-dihydro-4H-imidazol-4-one] yielded a melting point of 94 to 97 °C. Moreover, at human BACE1, the IC50 is 10 to 100 nM.

For `CCC(=O)c1cc(C2(c3cccc(-c4cccnc4F)c3)N=C(N)N(C)C2=O)cn1CCCCF` (stereo not shown) [Example 178], the melting point was 105 °C. This compound registered an IC50 at human BACE1 of 10 to 100 nM.

`CCN(CC)Cc1cc(C2(c3cccc(-c4cccnc4F)c3)N=C(N)N(C)C2=O)cn1CCF` (stereo not shown) [Example 235, 2-Amino-5-[5-[(diethylamino)methyl]-1-(2-fluoroethyl)-1H-pyrrol-3-yl]-5-[3-(2-fluoropyridin-3-yl)phenyl]-3-methyl-3,5-dihydro-4H-imidazol-4-one] showed a melting point of 121 to 140 °C. The compound further showed an IC50 at human BACE1 above 1000 nM.

`CC(C)OC(=O)c1cc(C2(c3ccc(F)c(-c4cccnc4F)c3)N=C(N)N(C)C2=O)cn1CCF` (stereo not shown) [Example 124] registered a melting point of 117 to 118 °C. The compound also gave an IC50 on human BACE1 of 110 to 1000 nM.

`COC(=O)c1cc(C2(c3ccc(F)c(-c4cncnc4)c3)N=C(N)N(C)C2=O)cn1CC(F)(F)F` (stereo not shown) [Example 121] had a melting point of 182 to 184 °C. In addition, the IC50 at human BACE1 is 10 to 100 nM.

As to `CCn1cc(C2(c3ccc(F)c(-c4cccnc4F)c3)N=C(N)N(C)C2=O)cc1C(=O)OC` (stereo not shown) [Example 123], the melting point is 113 to 115 °C. For the same compound, at human BACE1, the IC50 fell in the range of 10 to 100 nM.

`CCNC(=O)c1cc(C2(c3cccc(-c4cccnc4F)c3)N=C(N)N(C)C2=O)cn1CC` (stereo not shown) [Example 158] returned a melting point of 132 to 135 °C. This compound showed an IC50 on human BACE1 of 10 to 100 nM.

As to `CC(C)n1cc(C2(c3ccc(F)c(-c4cccnc4F)c3)N=C(N)N(C)C2=O)cn1` (stereo not shown) [Example 97], the melting point was in the range of 115 to 117 °C. The IC50 on human BACE1 lay within 10 to 100 nM.

Take `CCC(=O)c1cc(C2(c3cccc(OCC4CC4)c3)N=C(N)N(C)C2=O)cn1CC` (stereo not shown) [Example 137]: the melting point came out at 86 °C. Moreover, the IC50 at human BACE1 lay within 10 to 100 nM.

Turning to `COC(=O)c1cc(C2(c3cccc(-c4cc(F)ccc4F)c3)N=C(N)N(C)C2=O)cn1CCF` (stereo not shown) [Example 192], the melting point lay within 166 to 170 °C. The compound further showed an IC50 at human BACE1 of 10 to 100 nM.

For the origin of these results see US7705030B2, “Amino-5-(5-membered)hetero-arylimidazolone compounds and the use thereof for β-secretase modulation” (Wyeth LLC, priority 2005, dated 2010).
